From patent US20070037840A1, “Tricyclic benzimidazoles” (Altana Pharma AG, priority 2003, published 2007)

Tests used:
[1] = system: pentagastrin-stimulated acid secretion of the perfused rat stomach; experiment: Secretion-inhibiting action on the perfused rat stomach (pentagastrin-stimulated acid secretion); type: in vivo; settings: anesthetized CD rat, dose 2.0 μmol/kg i.d.
Excerpt: Testing of the Secretion-Inhibiting Action on the Perfused Rat Stomach
In Table A which follows, the influence of the compounds of the formula 1 according to the invention on the pentagastrin-stimulated acid secretion of the perfused rat stomach after intraduodenal administration in vivo is shown.
The abdomen of anesthetized rats (CD rat, female, 200-250 g; 1.5 g/kg i.m. urethane) was opened after tracheotomy by a median upper abdominal incision and a PVC catheter was fixed transorally in the esophagus and another via the pylorus such that the ends of the tubes just projected into the gastric lumen. The catheter leading from the pylorus led outward into the right abdominal wall through a side opening.
After thorough rinsing (about 50-100 ml), warm (37° C.) physiological NaCl solution was continuously passed through the stomach (0.5 ml/min, pH 6.8-6.9; Braun-Unita I). The pH (pH meter 632, glass electrode EA 147; φ=5 mm, Metrohm) and, by titration with a freshly prepared 0.01N NaOH solution to pH 7 (Dosimat 665 Metrohm), the secreted HCl were determined in the effluent in each case collected at an interval of 15 minutes.
The gastric secretion was stimulated by continuous infusion of […] (=1.65 ml/h) of i.v. pentagastrin (left femoral vein) about 30 min after the end of the operation (i.e. after determination of 2 preliminary fractions). The substances to be tested were administered intraduodenally in a 2.5 ml/kg liquid volume 60 min after the start of the continuous pentagastrin infusion. The body temperature of the animals was kept at a constant 37.8-38° C. by infrared irradiation and heat pads (automatic, stepless control by means of a rectal temperature sensor).

SMILES | Inhibition of acid secretion [1] [%] | melting point [°C]
COCCO[C@@H]1c2ccc3c(nc(C)n3C)c2N[C@H](c2ccccc2)[C@H]1O [Example 1, (6R,7R,8R)-2,3-Dimethyl-7-hydroxy-6-(2-methoxyethoxy)-8-phenyl-6,7,8,9-tetrahydro-3H-imidazo[4,5h]quinoline] | >50 | –
COCCO[C@H]1c2ccc3c(nc(C)n3C)c2N[C@H](c2ccccc2)[C@H]1O [Example 2, (6S,7R,8R)-2,3-Dimethyl-7-hydroxy-6-(2-methoxyethoxy)-8-phenyl-6,7,8,9-tetrahydro-3H-imidazo[4,5-]quinoline] | <50 | –
CCO[C@@H]1c2ccc3c(nc(C)n3C)c2N[C@H](c2ccccc2)[C@H]1O [Example 3, (6R,7R,8R)-2,3-Dimethyl-6-ethoxy-7-hydroxy-8-phenyl-6,7,8,9-tetrehydro-3H-imidazo[4,5h]-quinoline] | >50 | –
CCO[C@H]1c2ccc3c(nc(C)n3C)c2N[C@H](c2ccccc2)[C@H]1O [Example 4, (6S,7R,8R)-2,3-Dimethyl-6-ethoxy-7-hydroxy-8-phenyl-6,7,8,9-tetrahydro-3H-imidazo[4,5-h]-quinoline] | <50 | 169.9
Cc1nc2c3c(ccc2n1C)[C@@H](O)[C@H](O)[C@@H](c1ccccc1)N3 [Example 5, (6R,7R,8R)-2,3-Dimethyl-6,7-dihydroxyl-8-phenyl-6,7,8,9-tetrahydro-3H-imidazo[4,5-h]quinoline] | >50 | 224.7
Cc1nc2c3c(ccc2n1C)[C@H](O)[C@H](O)[C@@H](c1ccccc1)N3 [Example 6, (6S,7R,8R)-2,3-Dimethyl-6,7-dihydroxy-8-phenyl-6,7,8,9tetrahydro-3H-imidazo[4,5-h]quinoline] | <50 | 235.4
Cc1nc2c3c(ccc2n1C)[C@@H](OCC(F)F)[C@H](O)[C@@H](c1ccccc1)N3 [Example 7, (6R,7R,8R)-2,3-Dimethyl-7-hydroxy-6-(2,2-difluoroethoxy)-8-phenyl-6,7,8,9-tetrahydro-3H-imidazo[4,5-h]quinoline] | >50 | –
